Results reported in patent publication US10287297B2, “Epoxyazulene derivatives useful for treating cancer and diabetes” (The United States of America, as represented by the …, priority 2015, dated 2019).

Key:
Format in all cases: cell-based
UACC-62 = assay: NCI 60 cell assay, melanoma UACC-62; conditions: Homo sapiens, 48 h; UACC-62 (melanoma); drug exposure two days, SRB endpoint; read-out: GI-50 value
Experimental: (§1) Samples were tested in the standard National Cancer Institute 60-cell line protocol. First, they were tested against all 60 cell lines in a single final concentration of 10 micromolar. Then, they were separately tested in five 10-fold dilutions. The drug exposure was two days, with an SRB endpoint.

UO-31 = assay: NCI 60 cell assay, renal UO-31; conditions: Homo sapiens, 48 h; UO-31 (renal); drug exposure two days, SRB endpoint; read-out: GI-50 value
Experimental: as §1

TK-10 = assay: NCI 60 cell assay, renal TK-10; conditions: Homo sapiens, 48 h; TK-10 (renal); drug exposure two days, SRB endpoint; read-out: GI-50 value
Experimental: as §1

COLO 205 = assay: NCI 60 cell assay, colon COLO 205; conditions: Homo sapiens, 48 h; COLO 205 (colon); drug exposure two days, SRB endpoint; read-out: GI-50 value
Experimental: as §1

PC-3 = assay: NCI 60 cell assay, prostate PC-3; conditions: Homo sapiens, 48 h; PC-3 (prostate); drug exposure two days, SRB endpoint; read-out: GI-50 value
Experimental: as §1

OVCAR-3 = assay: NCI 60 cell assay, ovarian OVCAR-3; conditions: Homo sapiens, 48 h; OVCAR-3 (ovarian); drug exposure two days, SRB endpoint; read-out: GI-50 value
Experimental: as §1

T-47D = assay: NCI 60 cell assay, breast T-47D; conditions: Homo sapiens, T47D, 48 h; T-47D (breast); drug exposure two days, SRB endpoint; read-out: GI-50 value
Experimental: as §1

MOLT-4 = assay: NCI 60 cell assay, leukemia MOLT-4; conditions: Homo sapiens, 48 h; MOLT-4 (leukemia); drug exposure two days, SRB endpoint; read-out: GI-50 value
Experimental: as §1

NCI-H322M = assay: NCI 60 cell assay, NSCLC NCI-H322M; conditions: Homo sapiens, 48 h, drug exposure two days, SRB endpoint, read-out: GI-50 value
Experimental: as §1

ACHN = assay: NCI 60 cell assay, renal ACHN; conditions: Homo sapiens, 48 h, drug exposure two days, SRB endpoint, read-out: GI-50 value
Experimental: as §1

EKVX = assay: NCI 60 cell assay, NSCLC EKVX; conditions: Homo sapiens, 48 h, drug exposure two days, SRB endpoint, read-out: GI-50 value
Experimental: as §1

DU-145 = assay: NCI 60 cell assay, prostate DU-145; conditions: Homo sapiens, 48 h; DU-145 (prostate); drug exposure two days, SRB endpoint; read-out: GI-50 value
Experimental: as §1

NCI-H460 = assay: NCI 60 cell assay, NSCLC NCI-H460; conditions: Homo sapiens, 48 h, drug exposure two days, SRB endpoint, read-out: GI-50 value
Experimental: as §1

HL-60(TB) = assay: NCI 60 cell assay, leukemia HL-60(TB); conditions: Homo sapiens, 48 h; HL-60(TB) (leukemia); drug exposure two days, SRB endpoint; read-out: GI-50 value
Experimental: as §1

UACC-257 = assay: NCI 60 cell assay, melanoma UACC-257; conditions: Homo sapiens, 48 h; UACC-257 (melanoma); drug exposure two days, SRB endpoint; read-out: GI-50 value
Experimental: as §1

NCI-H23 = assay: NCI 60 cell assay, NSCLC NCI-H23; conditions: Homo sapiens, 48 h, drug exposure two days, SRB endpoint, read-out: GI-50 value
Experimental: as §1

HT29 = assay: NCI 60 cell assay, colon HT29; conditions: Homo sapiens, HT-29, 48 h, drug exposure two days, SRB endpoint, read-out: GI-50 value
Experimental: as §1

NCI/ADR-RES = assay: NCI 60 cell assay, ovarian NCI/ADR-RES; conditions: Homo sapiens, 48 h, drug exposure two days, SRB endpoint, read-out: GI-50 value
Experimental: as §1

HCT-15 = assay: NCI 60 cell assay, colon HCT-15; conditions: Homo sapiens, 48 h; HCT-15 (colon); drug exposure two days, SRB endpoint; read-out: GI-50 value
Experimental: as §1

SF-268 = assay: NCI 60 cell assay, CNS SF-268; conditions: Homo sapiens, 48 h; SF-268 (CNS); drug exposure two days, SRB endpoint; read-out: GI-50 value
Experimental: as §1

MCF7 = assay: NCI 60 cell assay, breast MCF7; conditions: Homo sapiens, 48 h, drug exposure two days, SRB endpoint, read-out: GI-50 value
Experimental: as §1

786-0 = assay: NCI 60 cell assay, renal 786-0; conditions: Homo sapiens, 48 h; 786-0 (renal); drug exposure two days, SRB endpoint; read-out: GI-50 value
Experimental: as §1

SK-MEL-2 = assay: NCI 60 cell assay, melanoma SK-MEL-2; conditions: Homo sapiens, 48 h; SK-MEL-2 (melanoma); drug exposure two days, SRB endpoint; read-out: GI-50 value
Experimental: as §1

A549/ATCC = assay: NCI 60 cell assay, NSCLC A549/ATCC; conditions: Homo sapiens, 48 h, drug exposure two days, SRB endpoint, read-out: GI-50 value
Experimental: as §1

SNB-19 = assay: NCI 60 cell assay, CNS SNB-19; conditions: Homo sapiens, 48 h; SNB-19 (CNS); drug exposure two days, SRB endpoint; read-out: GI-50 value
Experimental: as §1

LOX IMVI = assay: NCI 60 cell assay, melanoma LOX IMVI; conditions: Homo sapiens, 48 h, drug exposure two days, SRB endpoint, read-out: GI-50 value
Experimental: as §1

HOP-92 = assay: NCI 60 cell assay, NSCLC HOP-92; conditions: Homo sapiens, 48 h; HOP-92 (NSCLC); drug exposure two days, SRB endpoint; read-out: GI-50 value
Experimental: as §1

NCI-H522 = assay: NCI 60 cell assay, NSCLC NCI-H522; conditions: Homo sapiens, 48 h, drug exposure two days, SRB endpoint, read-out: GI-50 value
Experimental: as §1

RPMI-8226 = assay: NCI 60 cell assay, leukemia RPMI-8226; conditions: Homo sapiens, 48 h; RPMI-8226 (leukemia); drug exposure two days, SRB endpoint; read-out: GI-50 value
Experimental: as §1

SF-295 = assay: NCI 60 cell assay, CNS SF-295; conditions: Homo sapiens, 48 h; SF-295 (CNS); drug exposure two days, SRB endpoint; read-out: GI-50 value
Experimental: as §1

CAKI-1 = assay: NCI 60 cell assay, renal CAKI-1; conditions: Homo sapiens, 48 h; CAKI-1 (renal); drug exposure two days, SRB endpoint; read-out: GI-50 value
Experimental: as §1

HCT-116 = assay: NCI 60 cell assay, colon HCT-116; conditions: Homo sapiens, 48 h; HCT-116 (colon); drug exposure two days, SRB endpoint; read-out: GI-50 value
Experimental: as §1

SK-MEL-5 = assay: NCI 60 cell assay, melanoma SK-MEL-5; conditions: Homo sapiens, 48 h; SK-MEL-5 (melanoma); drug exposure two days, SRB endpoint; read-out: GI-50 value
Experimental: as §1

Structure (SMILES)	GI50 (UACC-62) [µM]	GI50 (UO-31) [µM]	GI50 (TK-10) [µM]	GI50 (COLO 205) [µM]	GI50 (PC-3) [µM]	GI50 (OVCAR-3) [µM]	GI50 (T-47D) [µM]	GI50 (MOLT-4) [µM]	GI50 (NCI-H322M) [µM]	GI50 (ACHN) [µM]	GI50 (DU-145) [µM]	GI50 (NCI-H460) [µM]	GI50 (HL-60(TB)) [µM]	GI50 (UACC-257) [µM]	GI50 (NCI-H23) [µM]	GI50 (HT29) [µM]	GI50 (NCI/ADR-RES) [µM]	GI50 (HCT-15) [µM]	GI50 (SF-268) [µM]	GI50 (MCF7) [µM]	further results
CC1=C2[C@@H](CC1)[C@]1(C)O[C@@](C3CCCCC3)(C[C@H]1OC(=O)CO)[C@H]2OC(=O)C=Cc1ccccc1 [(Iq), (3aR,4S,5R,7R,8S)-7-cyclohexyl-5-(2-hydroxyacetoxy)-1,4-dimethyl-2,3,3a,4,5,6,7,8-octahydro-4,7-epoxyazulen-8-yl cinnamate]	15	0.46	17	15	12	13	9.1	12	17	0.035	13	13	15	14	14	12	0.25	10	0.7	4.5	GI50 (EKVX): 11 µM; GI50 (786-0): 13 µM; GI50 (SK-MEL-2): 17 µM; GI50 (A549/ATCC): 11 µM; GI50 (SNB-19): 17 µM; GI50 (LOX IMVI): 14 µM; GI50 (HOP-92): 6 µM; GI50 (NCI-H522): 15 µM; GI50 (RPMI-8226): 10 µM; GI50 (SF-295): 12 µM; GI50 (CAKI-1): 10 µM; GI50 (HCT-116): 9 µM; GI50 (SK-MEL-5): 14 µM
CC1=C2[C@@H](CC1)[C@]1(C)O[C@@](C(C)C)(C[C@H]1OC(=O)CO)[C@H]2OC(=O)/C=C/c1ccccc1 [Compound (Ih)]	100	0.04	100	44	26	39	27	40	43	0.022	41	37	35	40	42	39	0.13	32	2.6	32	GI50 (786-0): 35 µM; GI50 (SK-MEL-2): 44 µM; GI50 (A549/ATCC): 33 µM; GI50 (SNB-19): 39 µM; GI50 (LOX IMVI): 42 µM; GI50 (HOP-92): 100 µM; GI50 (NCI-H522): 40 µM; GI50 (RPMI-8226): 27 µM; GI50 (SF-295): 40 µM; GI50 (CAKI-1): 1.07 µM; GI50 (HCT-116): 33 µM; GI50 (SK-MEL-5): 35 µM
